For orientation: IC50 means the point on the concentration scale where inhibition reaches its midpoint.

These results are taken from patent US9675595B2, “Synergistic combinations of PI3K- and MEK-inhibitors” (Novartis AG, priority 2011, dated 2017).

Common to all, as to type: cell-based
Experiment [1] deals with HCT 116. The experiment in a line: Cell viability (CellTiterGlo, 72 h), Example 1. To be noted: Homo sapiens, HCT-116, 72 h. From the text:
(§1) The colorectal cancer cell lines SW1417, COLO 205, LS411N, HT-29, RKO, OUMS-23, SW620, LoVo, SW480, SW837, COLO-678, LS123-NCI—H747, HCT-15, HCT116, DLD-1, T84, SW948, LS180, GP2d, HuTu 80, CW-2, SW48, NCI—H716, C2Bbe1, SNU—C1 and KM12 are obtained from the American Type Culture Collection (ATCC) and maintained in their respective culture medium as specified by the provider. These colorectal cancer cell lines have the following mutation status:
(§2) For assessment of combination effects, cells are seeded into 384-well plates at 500 cells/well and incubated overnight. The contents of the compound master plates are pre-diluted with 1:200 (1 μL compound solution to 200 μL cell […] culture medium containing 10% fetal clf serum) before transferring 5 μL of this pre-dilution to the cell plates containing 20 μL cell culture medium, to achieve the targeted final compound concentrations as well as a vehicle (DMSO) concentration of 0.09%.
(§3) Effects of single agents as well as their checkerboard combinations on cell viability are assessed after 72 hours of incubation at 37° C./5% CO2 by quantification of cellular ATP levels (CellTiterGlo, Promega) using 25 μL reagent/well and n=2 repliate plates per condition. The number/viability of cells at the time of compound addition was likewise assessed and used to estimate the population doubling time of the particular cell line. Single agent IC50s are calculated using standard four-parametric curve fitting (SLFit, model 205). Potential synergistic interactions between compound combinations are assessed using the Excess Inhibition 2D matrix according to the Loewe additivity model and are reported as Synergy Score. In addition, compound combinations are assessed by combination index analysis derived from isobologram graphs at 50% inhibition, and are reported as best combination index (CI), which corresponds to the lowest value on the isobologram. All synergy calculations are performed using CHALICE software (Lehár et al, Nat Biotechnol. (July 2009), 27(4): 69:66).
A general note: In ATP-based viability assays light output follows the ATP content of the culture.

The subject of experiment [2] is NCI-H747. Put plainly: Cell viability (CellTiterGlo, 72 h), Example 1. The following applies: Homo sapiens, single agent.
Text: as §1, §2, §3

The subject of experiment [3] is CW-2. The experiment in a line: Cell viability (CellTiterGlo, 72 h), Example 1. The following applies: Homo sapiens, single agent.
Text: as §1, §2, §3

Experiment [4] has as its system RKO. Put plainly: Cell viability (CellTiterGlo, 72 h), Example 1. The following applies: Homo sapiens, single agent.
Text: as §1, §2, §3

Experiment [5] relates to SW948. Put plainly: Cell viability (CellTiterGlo, 72 h), Example 1. To be noted: Homo sapiens, duplicate data points and dose response display some scatter, single agent.
Text: as §1, §2, §3

The subject of experiment [6] is SW1417. The experiment in a line: Cell viability (CellTiterGlo, 72 h), Example 1. To be noted: Homo sapiens, single agent.
Text: as §1, §2, §3

Experiment [7] has as its system COLO-678. Put plainly: Cell viability (CellTiterGlo, 72 h), Example 1. The following applies: Homo sapiens, single agent.
Text: as §1, §2, §3

The subject of experiment [8] is colorectal cancer cell lines. Put plainly: Cell viability (CellTiterGlo, 72 h), Example 1, whole panel. To be noted: repeat experiments (*) excluded.
Text: as §1, §2
as §3, with “[…]). Interpretation of values for combination index and synergy score are provided below:” for “69:66).”
Pairwise multiple comparisons of the result groups are performed by one-way ANOVA (Neuman-Keuls method) using GraphPad Prism 5 (GraphPad Software Inc.). Results

Experiment [9] deals with CRC and NSCLC cell lines that carry KRAS mutations. The experiment in a line: Cell proliferation assay (CellTiter-Glo, 72 hrs), dose matrix, Example 2, all six cell lines. To be noted: in the combination dose matrix. On the procedure:
The cell lines used in this study were purchased from American Type Cell Collection, including non-small cell lung cancer cell lines NCI—H23 & NCI—H2122 (which carry both KRAS and LKB1 mutations), NCI—H358 (which carries KRAS mutation), NCI—H460 (which carries KRAS, LKB1 and PIK3CA mutations), and Colorectal Cancer cell line SW480 (which carries KRAS mutation), HCT-15 (which carries KRAS PIK3CA mutations). All the cell lines were cultured at 37° C. in a 5% CO2 incubator in RPMI 1640 (ATCC #30-2001) media complemented with 10% fetal bovine serum, 2 mmol/L glutamine and 1% sodium pyruvate.
Cell viability was determined by measuring cellular ATP content using the CellTiter-Glo® Luminescent Cell Viability Assay (Promega #G7573) according to manufacturer's protocol. Briefly, 500-900 cells/well were plated on clear-bottom 384-well black plates (Greiner#781091) in quadruplicates or duplicates with 30 ul/well growth media, cells were allowed to attach overnight and followed by 72 hrs of incubation with various concentration of drugs or drug combinations (10 ul/well), at the end of the drug treatment, 30 ul/well of the CellTiter-Glo regent were added to each well to lyse the cells, and luminescence signals were recorded on a Envision plate reader. […]

Read-outs that look alike come from different tables or passages of the source.

For the compound `Cc1nc(NC(=O)N2CCC[C@H]2C(N)=O)sc1-c1ccnc(C(C)(C)C(F)(F)F)c1` [COMPOUND A, (S)-pyrrolidine-1,2-dicarboxylic acid 2-amide 1-({4-methyl-5-[2-(2,2,2-trifluoro-1,1-dimethyl-ethyl)-pyridin-4-yl]-thiazol-2-yl}-amide)], the IC50 in experiment [1] (HCT 116*, repeat experiment performed at end of study, single agent, read-out: Cmpd. A IC50) was 8.32 µM; in [1] (HCT 116, single agent, read-out: Cmpd. A IC50), 9.42 µM; in experiment [2] (read-out: Cmpd. A IC50), 6.21 µM; in experiment [3] (read-out: Cmpd. A IC50), more than 10.8 µM; in [4] (read-out: Cmpd. A IC50), 6.73 µM; in [5] (read-out: Cmpd. A IC50), 1190 nM. In addition, the IC50 in experiment [6] (read-out: Cmpd. A IC50) was 7.85 µM; in experiment [7] (read-out: Cmpd. A IC50), more than 10800 nM; in [8] (Mean over colorectal cell lines, read-out: Mean Cmpd. A IC50) it was 7.51 µM; in [8] (Median over colorectal cell lines, read-out: Median Cmpd. A IC50), 8.66 µM. For the same compound, the “doses at which synergistic regions are typically observed” value in experiment [9] is listed as “above 150 nM”.
With `Cn1cnc2c(F)c(Nc3ccc(Br)cc3F)c(C(=O)NOCCO)cc21` [COMPOUND B, 6-(4-bromo-2-fluorophenylamino)-7-fluoro-3-methyl-3H-benzoimidazole-5-carboxylic acid (2-hydroxyethoxy)-amide], the IC50 in experiment [1] (HCT 116*, repeat experiment performed at end of study, single agent, read-out: Cmpd. B IC50) was 0.735 µM; in experiment [1] (HCT 116, single agent, read-out: Cmpd. B IC50), 0.881 µM; in [2] (read-out: Cmpd. B IC50) it was 0.153 µM; in [3] (read-out: Cmpd. B IC50) it was more than 2.7 µM; in experiment [4] (read-out: Cmpd. B IC50) it was more than 2.7 µM; in experiment [5] (read-out: Cmpd. B IC50), 89.8 nM. Moreover, the IC50 in experiment [6] (read-out: Cmpd. B IC50) was 0.0539 µM; in experiment [7] (read-out: Cmpd. B IC50), 1710 nM; in experiment [8] (Mean over colorectal cell lines, read-out: Mean Cmpd. B IC50), 1.16 µM; in [8] (Median over colorectal cell lines, read-out: Median Cmpd. B IC50), 0.076 µM. Moreover, the “doses at which synergistic regions are typically observed” value in experiment [9] is on record as not below 80 nM.
